What was measured:
Assay type in all cases: cell-based
Design in all cases: key: +: inhibition zones against the tested microorganisms were observed; −: inhibition zones were not detected
Candida spp. = experiment: standard NCCLS disc diffusion method, Candida spp.; details: 100 u/disc, SDA, 36±1° C., 48 hours
Method: (§1) Antimicrobial properties of the textile products loaded with impregnation solution were examined by using standard NCCLS disc diffusion method (Lalitha, 2005). Briefly, the 100 μl solution including 10^8 cfu/ml bacteria, 10^6 cfu/ml yeast, and 10^4 spor/ml fungus was prepared with new cultures and inoculated with spreading method on Trypticase soy agar (TSA), Sabouraud Dextrose Agar (SDA), and Potato Dextrose Agar (PDA), respectively. The sections of approximately 1×1 cm, which were cut out from the textile products loaded with the impregnation solution comprising the stated concentrations of triclosan, chlorhexidine and disodium octaborate pentahydrate, were placed on inoculated petri dishes. Empty textile products which were not loaded with impregnation solution were used as negative control. As positive control, Ofloxacin (5 μg/disc) was used for bacteria and Nystatin (100 u/disc) was used for yeasts and fungi. The petri dishes, which were inoculated and on which textile products were placed, were kept at 36±1° C. for bacteria for 24 hours and 48 hours for yeasts and at 25±1° C. for fungi for 72 hours. Antimicrobial activity against microorganisms tested in standard disc diffusion method was assessed by measuring the inhibition zone. All tests were repeated at least twice.

Aspergillus spp. = experiment: standard NCCLS disc diffusion method, Aspergillus spp.; details: 100 u/disc, PDA, 25±1° C., 72 hours
Method: as §1

Penicillium spp. = experiment: standard NCCLS disc diffusion method, Penicillium spp.; details: 100 u/disc, PDA, 25±1° C., 72 hours
Method: as §1

Escherichia coli = experiment: standard NCCLS disc diffusion method, Escherichia coli; details: TSA, 36±1° C., 24 hours
Method: as §1, with “As positive control, Ofloxacin (5 μg/disc) was used for bacteria and Nystatin (100 u/disc) was used for yeasts and fungi.” left out

Staphylococcus aureus = experiment: standard NCCLS disc diffusion method, Staphylococcus aureus; details: 10 μg/disc, TSA, 36±1° C., 24 hours
Method: as §1, with “As positive control, Ofloxacin (5 μg/disc) was used for bacteria and Nystatin (100 u/disc) was used for yeasts and fungi.” left out

MRSA = experiment: standard NCCLS disc diffusion method, MRSA; details: TSA, 36±1° C., 24 hours
Method: as §1, with “As positive control, Ofloxacin (5 μg/disc) was used for bacteria and Nystatin (100 u/disc) was used for yeasts and fungi.” left out

Pseudomonas aeruginosa = experiment: standard NCCLS disc diffusion method, Pseudomonas aeruginosa; details: TSA, 36±1° C., 24 hours
Method: as §1, with “As positive control, Ofloxacin (5 μg/disc) was used for bacteria and Nystatin (100 u/disc) was used for yeasts and fungi.” left out

Measured: In vitro antimicrobial test result (inhibition zone), positive control

C[C@@H]1[C@H](O)[C@@H](C)/C=C/C=C/CC/C=C/C=C/C=C/C=C/C(O[C@H]2O[C@H](C)[C@@H](O)[C@H](N)[C@@H]2O)CC2O[C@](O)(CC(O)C(O)CCC(O)CC(O)CC(O)CC(=O)O[C@H]1C)CC(O)C2C(=O)O (stereo partly shown) [Nystatin]
+: Candida spp. | Aspergillus spp. | Penicillium spp.

CC1COc2c(N3CCN(C)CC3)c(F)cc3c(=O)c(C(=O)O)cn1c23 (stereo not shown) [Ofloxacin]
+: Escherichia coli | Staphylococcus aureus | MRSA | Pseudomonas aeruginosa

Source: patent US10125453B2, “Antimicrobial textile products and method of obtaining thereof” (YEDITEPE ÜNIVERSITESI, priority 2013, dated 2018)
